{"source": "patent US6498126B1", "about": "“Herbicide combination with acylated aminophenylsulfonylureas” (Aventis CropScience GmbH, priority 1999, dated 2002)", "test_system": "Setaria lutescens", "assay": "Herbicidal action (field trials), post-emergence treatment, visual scoring of damage", "type": "in vivo", "description": "The seeds or rhizome pieces of typical harmful plants were planted and grown under natural field conditions. After the harmful plants had emerged, they were treated, as a rule at the 2-to 8-leaf stage, with various dosages of the compositions according to the invention at a water application rate of 100 to 400 I/ha (converted).\nAfter the treatment (approx. 4-6 weeks after application), the herbidical activity of the active ingredients or active ingredient mixtures was scored visually by comparing the treated plots with the untreated control plots. Damage and development of all aerial parts of the plants was recorded. Scoring was done on a percentage scale (100% action=all plants dead; 50% action=50% of the plants and green plant parts dead; 0% action=no discernible action=like control plot). The score figures of in each case 4 plots was averaged.\nThe results are shown in the tables which follow, the action when using active ingredients A and B independently being stated in brackets."}
{"smiles": "COc1cc(OC)nc(Sc2cccc(Cl)c2C(=O)[O-])n1.[Na+]", "note": "[Pyrithiobac (B2.7), sodium 2-chloro-6-(4,6-dimethoxypyrimidin-2-ylthio)benzoate, reference compound]", "values": [{"measurement": "Herbicidal effect on Setaria lutescens Damage in %", "setting": "Table 4, 105 gAS/ha, treatment at the 6-8 leaf stage, scoring 27 days after application", "result": 25, "unit": "%"}]}
{"smiles": "COc1cc(OC)nc(NC(=O)NS(=O)(=O)c2cc(NC=O)ccc2C(=O)N(C)C)n1", "note": "[A1.1, N-[N-(4,6-dimethoxypyrimidin-2-yl)-aminocarbonyl]-2-(dimethyl-aminocarbonyl)-5-(formylamino)benzenesulfonamide]", "values": [{"measurement": "Herbicidal effect on Setaria lutescens Damage in %", "setting": "Table 1, 35 gAS/ha, treatment at the 6-8 leaf stage, scoring 27 days after application", "result": 30, "unit": "%"}, {"measurement": "Herbicidal effect on Setaria lutescens Damage in %", "setting": "Table 1, 70 gAS/ha, treatment at the 6-8 leaf stage, scoring 27 days after application", "result": 97, "unit": "%"}, {"measurement": "Herbicidal effect on Setaria lutescens Damage in %", "setting": "Table 2, 35 gSA/ha, treatment at the 6-8 leaf stage, scoring 27 days after application", "result": 30, "unit": "%"}, {"measurement": "Herbicidal effect on Setaria lutescens Damage in %", "setting": "Table 2, 70 gSA/ha, treatment at the 6-8 leaf stage, scoring 27 days after application", "result": 97, "unit": "%"}, {"measurement": "Herbicidal effect on Setaria lutescens Damage in %", "setting": "Table 3, 35 gAS/ha, treatment at the 2-leaf stage, scoring 39 days after application", "result": 65, "unit": "%"}, {"measurement": "Herbicidal effect on Setaria lutescens Damage in %", "setting": "Table 3, 70 gAS/ha, treatment at the 2-leaf stage, scoring 39 days after application", "result": 87, "unit": "%"}, {"measurement": "Herbicidal effect on Setaria lutescens Damage in %", "setting": "Table 4, 35 gAS/ha, treatment at the 6-8 leaf stage, scoring 27 days after application", "result": 65, "unit": "%"}, {"measurement": "Herbicidal effect on Setaria lutescens Damage in %", "setting": "Table 4, 70 gAS/ha, treatment at the 6-8 leaf stage, scoring 27 days after application", "result": 85, "unit": "%"}]}
{"smiles": "CCOc1nc(NC)nc(NC(=O)NS(=O)(=O)c2ccccc2C(=O)OC)n1", "note": "[ethametsulfuron (B2.6), methyl 2-{N-[N-(4-ethoxy-6-methylamino-1,3,5-triazin-2-yl)-aminocarbonyl]-aminosulfonyl}benzoate, reference compound]", "values": [{"measurement": "Herbicidal effect on Setaria lutescens Damage in %", "setting": "Table 1, 15 gAS/ha, treatment at the 6-8 leaf stage, scoring 27 days after application", "result": 33, "unit": "%"}]}
{"smiles": "CS(=O)(=O)NC(=O)c1cc(Oc2ccc(C(F)(F)F)cc2Cl)ccc1[N+](=O)[O-]", "note": "[Fumesafen (B2.9), 5-(2-chloro-α,α,α-trifluoro-p-tolyloxyl)N-methylsulfonyl-2-nitrobenzamide, reference compound]", "values": [{"measurement": "Herbicidal effect on Setaria lutescens Damage in %", "setting": "Table 3, 240 gAS/ha, treatment at the 2-leaf stage, scoring 39 days after application", "result": 25, "unit": "%"}]}
